# In patent publication EP1428528A1, “Synergistic combinations of dietary fiber and NSAIDs for the treatment of cancer” (Tiense Suikerraffinaderij N.V., priority 2002, dated 2004):
# Marks after values point to notes of the source that are not given here.
# Experiments:
# [1] = test system: azoxymethane-induced aberrant crypt foci in rat colon; assay: Aberrant crypt foci (ACF) study in azoxymethane-treated rats, Example 1; format: in vivo, male Fisher 344 weanling rats; conditions: for Total ACF / Number of foci with 1 aberrant crypt per focus / Number of foci with 2 aberrant crypts per focus / Number of foci with 3 aberrant crypts per focus / Number of foci with 4 aberrant crypts per focus / Number of foci with 5(+) (5 and more) aberrant crypts per focus: Example 1, Table 3; for Total ACF / Number of foci with 1 aberrant crypt per focus / Number of foci with 2 aberrant crypts per focus / Number of foci with 3 aberrant crypts per focus / Number of foci with 4 aberrant crypts per focus / Number of foci with 5(+) (5 and more) aberrant crypts per focus / Number of AOM-induced ACF in rat colon in proximal part / Number of AOM-induced ACF in rat colon in distal part / Number of AOM-induced ACF in rat colon in total ACF in colon: Means ± SE, n=10; for Number of foci with 1 aberrant crypt per focus / Number of foci with 2 aberrant crypts per focus / Number of foci with 3 aberrant crypts per focus / Number of foci with 4 aberrant crypts per focus / Number of foci with 5(+) (5 and more) aberrant crypts per focus: proximal and distal colon; for Number of AOM-induced ACF in rat colon in proximal part / Number of AOM-induced ACF in rat colon in distal part / Number of AOM-induced ACF in rat colon in total ACF in colon: diet 13 weeks, inulin 100 g/kg and/or NSAID 0.2 g/kg diet; for Number of AOM-induced ACF in rat colon in proximal part: AOM 16mg/kg s.c. at 7 and 8 weeks of age; for Number of AOM-induced ACF in rat colon in distal part / Number of AOM-induced ACF in rat colon in total ACF in colon: AOM 16mg/kg s.c.
# Description: The inulin used was Synergy1 (in short Syn1) and Synergy2 (in short Syn2), which are mixtures of oligofructose (RAFTILOSE®) and inulin of av. DP of 23 to 25 (RAFTILINE®) with a total content of inulin with a DP 9 and DP 10 of maximally 5 % by weight, at a weight ratio of 1:1 and 1:2, respectively, obtained from ORAFTI (Belgium) (RAFTILOSE® and RAFTILINE® are trade names of RT/TS, Belgium). The diets were prepared fresh every week and stored at 4°C until fed. The experimental diets were formulated based on AIN 93G diets. The ingredients were obtained from ICN Biomedicals, Aurora, OH, USA. All other chemicals were obtained from Sigma Chemical Co., St. Louis, MO, USA. All the protocols involving rats have been approved by the Institutional Animal Care and Use Committee of Alabama A& M University.
# (§1) After 1 week of acclimatisation, 100 male Fisher 344 weanling rats were divided into 10 groups of 10 rats per group and assigned the AIN93G (Control) diet or the experimental diets for 13 weeks. For the study, temperature was maintained at 21°C ± 1°C, relative humidity at 50%, and light and dark cycles at 12 hours each. Feed and water were provided ad libitum. Weekly body weights and daily feed intake were recorded. After adaptation, all animals received two subcutaneous injections of azoxymethane (AOM) in saline at 16mg/kg body weight at 7 and 8 weeks of age. At the end of the feeding period, the animals were sacrificed using CO2 euthanasia after an overnight's fast. Accordingly, the colons of the rats were removed, flushed with potassium phosphate buffer 0.1M (pH 7.2) and examined for aberrant crypt foci (ACF) and tumours.
# colorectal adenomas = conditions: patients with familial adenomatous polyposis; cited from earlier work
# [2] = test system: azoxymethane-induced aberrant crypt foci in rat colon; assay: Aberrant crypt foci (ACF) study in azoxymethane-treated rats, Example 2 (same protocol as Example 1); format: in vivo, Fisher 344 male rats
# Description: as §1
# In example 2, experiments similar to the ones of example 1 were carried out, to examine the anti-cancer effects of a composition containing a combination of RAFTILINE® HP and sulindac. The 4 groups each of 10 Fisher 344 male rats were given a diet containing either control diet, control diet + RAFTILINE®HP, control diet + sulindac, or control diet + RAFTILINE®HP + sulindac (RAFTILINE® : trade name of RT/TS, Belgium). The protocol of the experiments was the same as the one of example 1.
# [3] = Example 2, Table 6, Means ± SEM
# [4] = Example 2, inulin 100 g/kg and/or sulindac 0.2 g/kg diet, Means ± SE, n as indicated
Structure (SMILES),Total ACF [1],Number of foci with 1 aberrant crypt per focus [1],Number of foci with 2 aberrant crypts per focus [1],Number of foci with 3 aberrant crypts per focus [1],Number of foci with 4 aberrant crypts per focus [1],Number of foci with 5(+) (5 and more) aberrant crypts per focus [1],Number of AOM-induced ACF in rat colon in proximal part ([1]; Example 1),Number of AOM-induced ACF in rat colon in distal part ([1]; Example 1),Number of AOM-induced ACF in rat colon in total ACF in colon ([1]; Example 1),also measured
"CC(=O)Oc1ccccc1C(=O)O [Aspirin, acetyl salicylate]",64.40 ± 3.46^c,6.50 ± 1.12^b,12.48 ± 1.23^b,17.42 ± 1.94^b,15.86 ± 1.82^c,12.14 ± 0.86^b,10.26 ± 1.11^b,54.14 ± 1.96^b,64.40 ± 3.46^c,
CN1C(C(=O)Nc2ccccn2)=C(O)c2ccccc2S1(=O)=O [Piroxicam],62.64 ± 2.86^c,4.18 ± 1.04^c,13.16 ± 1.54^b,,14.78 ± 1.94^c,14.24 ± 0.94^b,12.16 ± 1.04^b,50.48 ± 1.09^b,62.64 ± 2.86^c,
CC1=C(CC(=O)O)c2cc(F)ccc2/C1=C\c1ccc([S+](C)[O-])cc1 (centres unmarked) [Sulindac],73.87 ± 4.25 ^b,4.08 ± 0.48^c,12.14± 2.04^b,20.37 ± 2.40^b,20.48 ± 2.48^b,16.80 ± 0.78^b,11.24 ± 0.90^b,62.58 ± 1.68^b,73.87 ± 4.25 ^b,"number and size of colorectal adenomas compared to patients given placebo (colorectal adenomas): significantly reduce the number and size of colorectal adenomas; reduction of the incidence of ACF compared to the controls ([1]; Example 1, inulin at 10 % level and/or NSAID in diet): about 53%; overall reduction in ACF (total colon) compared to the control diet ([2]; Example 2): about 52%; reduction of ACF in the distal colon compared to the control diet group ([2]; Example 2): about 44%; reduction of ACF in the proximal colon compared to the control diet group ([2]; Example 2): about 74%; Number of foci with 1 aberrant crypt per focus [2, 3]: 3.50 ± 0.38 ^b; Number of foci with 2 aberrant crypts per focus [2, 3]: 11.67 ± 1.19^b; Number of foci with 3 aberrant crypts per focus [2, 3]: 22.17± 1.03 ^c; Number of foci with 4 aberrant crypts per focus [2, 3]: 22.50 ± 0.86^b; Number of foci with 5(+) (5 and more) aberrant crypts per focus [2, 3]: 15.33 ± 0.45 ^c; Total ACF [2, 3]: 75.08 ± 1.93^d; foci with 3, 4 and 5 or more aberrant crypts compared to the other groups ([2]; Example 2, statement in text): significantly lower (p<0.05); Number of AOM-induced ACF in rat colon in distal part [2, 4]: 64.50 ± 1.54^d; Number of AOM-induced ACF in rat colon in proximal part [2, 4]: 10.58 ± 0.90^c; Number of AOM-induced ACF in rat colon, Total ACF in colon [2, 4]: 75.1 ± 1.93"
